Legend:
[1] = system: ECHCG; assay: Pre-emergence action against ECHCG, 1280 g/ha; format: in vivo, Echinochloa crus-galli; conditions: visual scoring after about 3 weeks vs untreated controls, 100% = plants have died, 0% = like control plants; for pest or weed control at 1280 g/ha: Echinochloa crus-galli, 504 h
In short: (§1)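 In greenhouse pots of sandy loam, sown weed seeds were covered with soil and treated pre-emergence with the compound in water (600 L/ha, 0.5% additive). Efficacy was assessed visually as percent of untreated control after about 3 weeks.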

[2] = system: POAAN; assay: Pre-emergence action against POAAN, 1280 g/ha; format: in vivo, Poa annua; conditions: visual scoring after about 3 weeks vs untreated controls, 100% = plants have died, 0% = like control plants; for pest or weed control at 1280 g/ha: Poa annua, 504 h
In short: as §1

[3] = system: SETVI; assay: Pre-emergence action against SETVI, 1280 g/ha; format: in vivo, Setaria viridis; conditions: visual scoring after about 3 weeks vs untreated controls, 100% = plants have died, 0% = like control plants; for pest or weed control at 1280 g/ha: Setaria viridis, 504 h
In short: as §1

[4] = system: AMARE; assay: Pre-emergence action against AMARE, 1280 g/ha; format: in vivo, Amaranthus retroflexus; conditions: scored visually after about 3 weeks vs untreated controls (100% = plants have died); for pest or weed control at 1280 g/ha: Amaranthus retroflexus, 504 h
In short: as §1

[5] = system: MATIN; assay: Pre-emergence action against MATIN, 1280 g/ha; format: in vivo, Tripleurospermum inodorum (Matricaria inodora); conditions: scored visually after about 3 weeks vs untreated controls (100% = plants have died); for pest or weed control at 1280 g/ha: Tripleurospermum inodorum, 504 h
In short: as §1

[6] = system: STEME; assay: Pre-emergence action against STEME, 1280 g/ha; format: in vivo, Stellaria media; conditions: scored visually after about 3 weeks vs untreated controls (100% = plants have died); for pest or weed control at 1280 g/ha: Stellaria media, 504 h
In short: as §1

[7] = system: ALOMY; assay: Pre-emergence action at 320 g/ha against ALOMY; format: in vivo, Alopecurus myosuroides; conditions: scored visually after about 3 weeks vs untreated controls (100% = plants have died); for pest or weed control at 320 g/ha: Alopecurus myosuroides, 504 h
In short: (§2)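 Visual scoring in percent against untreated controls, about 3 weeks after treatment, where 100% means dead plants and 0% means no difference. Compounds were applied as aqueous suspension or emulsion (WP or EC, plus 0.5% additive) onto soil covering freshly sown seeds, at 600 l/ha water.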

[8] = system: DIGSA; assay: Pre-emergence action at 320 g/ha against DIGSA; format: in vivo, Digitaria sanguinalis; conditions: visual scoring after about 3 weeks vs untreated controls; for pest or weed control at 320 g/ha: Digitaria sanguinalis, 504 h
In short: as §2

[9] = system: SETVI; assay: Pre-emergence action at 320 g/ha against SETVI; format: in vivo, Setaria viridis; conditions: visual scoring after about 3 weeks vs untreated controls; for pest or weed control at 320 g/ha: Setaria viridis, 504 h
In short: as §2

[10] = system: AMARE; assay: Pre-emergence action at 320 g/ha against AMARE; format: in vivo, Amaranthus retroflexus; conditions: visual scoring after about 3 weeks vs untreated controls; for pest or weed control at 320 g/ha: Amaranthus retroflexus, 504 h
In short: as §2

[11] = system: POLCO; assay: Pre-emergence action at 320 g/ha against POLCO; format: in vivo, Fallopia convolvulus (Polygonum convolvulus); conditions: visual scoring after about 3 weeks vs untreated controls; for pest or weed control at 320 g/ha: Fallopia convolvulus, 504 h
In short: as §2

[12] = system: POAAN; assay: Post-emergence action against POAAN, 1.28 kg/ha; format: in vivo, Poa annua; conditions: dosage 1280 g/ha, visual rating about 3 weeks after treatment vs untreated controls; for pest or weed control at 1280 g/ha: Poa annua, 504 h
In short: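 Spray at one-leaf stage with WP/EC + 0.5% additive, 600 L water/ha. Greenhouse, optimum conditions, ~3 wk. Visual % control vs untreated; 0 = no effect, 100 = dead.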

[13] = system: SETVI; assay: Post-emergence action at 320 g/ha against SETVI; format: in vivo, Setaria viridis; conditions: visual rating about 3 weeks after treatment vs untreated controls
In short: (§3)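 Visual % activity vs untreated controls (0% = like control, 100% = plants dead), scored ~3 wk after treatment. Plants were grown in sandy loam in a greenhouse and sprayed on green parts at the one-leaf stage (2–3 wk post-sowing). Spray: WP or EC in water, 0.5% additive, 600 l/ha.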

[14] = system: PHBPU; assay: Post-emergence action at 320 g/ha against PHBPU; format: in vivo; conditions: visual rating about 3 weeks after treatment vs untreated controls
In short: as §3

[15] = system: ABUTH; assay: Pre-emergence action against ABUTH, 1280 g/ha; format: in vivo, Abutilon theophrasti; conditions: scored visually after about 3 weeks vs untreated controls (100% = plants have died)
In short: as §1

Compound	Pre-emergence action against ECHCG [1] [%]	Pre-emergence action against POAAN [2] [%]	Pre-emergence action against SETVI [3] [%]	Pre-emergence action against AMARE [4] [%]	Pre-emergence action against MATIN [5] [%]	Pre-emergence action against STEME [6] [%]	Pre-emergence action at 320 g/ha against ALOMY in % [7] [%]	Pre-emergence action against DIGSA in % [8] [%]	Pre-emergence action against SETVI in % [9] [%]	Pre-emergence action against AMARE in % [10] [%]	Pre-emergence action against POLCO in % [11] [%]	Post-emergence action against POAAN [12] [%]	Post-emergence action against PHBPU in % [14] [%]	Pre-emergence action against ABUTH [15] [%]	pest or weed control at 1280 g/ha [1] [%]	pest or weed control at 1280 g/ha [2] [%]	pest or weed control at 1280 g/ha [3] [%]	pest or weed control at 1280 g/ha [4] [%]	pest or weed control at 1280 g/ha [5] [%]	pest or weed control at 1280 g/ha [6] [%]	other results
COC(=O)CNC(=O)COc1nn(-c2ccccc2F)c(-c2ccc(F)nc2)c1Br [Example X-002]	90	100	100	100	90	100	100	100	100	100	100	100	90	–	–	–	–	–	–	–	Post-emergence action against SETVI in % [13]: 90%
COC(=O)COc1nn(-c2ccc(F)cc2)c(-c2ccc(F)nc2)c1Br [VII-002]	100	100	100	100	90	100	90	100	90	100	100	100	90	–	–	–	–	–	–	–	Post-emergence action against SETVI in % [13]: 80%
COC(=O)COc1nn(-c2ccccc2F)c(-c2ccc(F)nc2)c1F [VII-040]	100	100	100	100	100	100	100	100	100	100	90	100	90	–	–	–	–	–	–	–	Post-emergence action against SETVI in % [13]: 100%
COC(=O)[C@@H](C)Oc1nn(-c2cc(F)ccc2F)c(-c2ccc(F)nc2)c1Br [VII-062]	100	100	100	100	100	100	100	100	100	100	100	100	80	90	–	–	–	–	–	–	–
O=C(O)COc1nn(-c2ccccc2F)c(-c2ccc(F)nc2)c1Br [VII-003, {[4-Bromo-1-(2-fluorophenyl)-5-(6-fluoropyridin-3-yl)-1H-pyrazol-3-yl]oxy}acetic acid]	–	–	–	–	–	–	–	–	–	–	–	–	90	–	100	100	100	100	100	100	pest or weed control at 320 g/ha [7]: 100%; pest or weed control at 320 g/ha [8]: 100%; pest or weed control at 320 g/ha [9]: 100%; pest or weed control at 320 g/ha [10]: 100%; pest or weed control at 320 g/ha [11]: 90%; pest or weed control at 1280 g/ha [12]: 100%
COC(=O)[C@@H](C)Oc1nn(-c2cc(F)ccc2F)c(-c2cncc(F)c2)c1Br [VII-132]	100	100	100	100	100	100	100	100	100	100	100	100	90	90	–	–	–	–	–	–	–
CCOC(=O)COc1nn(-c2ccccc2F)c(-c2ccnc(F)c2)c1Br [VIII-003, Ethyl {[4-bromo-1-(2-fluorophenyl)-5-(2-fluoropyridin-4-yl)-1H-pyrazol-3-yl]oxy}acetate]	–	–	–	–	–	–	–	–	–	–	–	–	80	–	100	100	100	100	100	100	pest or weed control at 320 g/ha [7]: 100%; pest or weed control at 320 g/ha [8]: 100%; pest or weed control at 320 g/ha [9]: 100%; pest or weed control at 320 g/ha [10]: 90%; pest or weed control at 320 g/ha [11]: 100%; pest or weed control at 1280 g/ha [12]: 100%
COCCOC(=O)COc1nn(-c2ccccc2F)c(-c2ccc(F)nc2)c1Br [VII-052]	100	100	100	100	100	100	100	100	100	100	100	100	80	100	–	–	–	–	–	–	–
COC(=O)COc1nn(-c2cc(F)ccc2F)c(-c2ccc(F)nc2)c1Br [VII-089]	100	100	100	100	100	90	100	100	100	100	100	100	80	–	–	–	–	–	–	–	–
O=C(O)COc1nn(-c2ccccc2F)c(-c2cncnc2)c1Br [VI-007, {[4-Bromo-1-(2-fluorophenyl)-5-(pyrimidin-5-yl)-1H-pyrazol-3-yl]oxy}acetic Acid]	–	–	–	–	–	–	–	–	–	–	–	–	90	90	100	100	100	100	100	100	pest or weed control at 320 g/ha [7]: 80%; pest or weed control at 320 g/ha [8]: 100%; pest or weed control at 320 g/ha [9]: 100%; pest or weed control at 320 g/ha [10]: 100%; pest or weed control at 320 g/ha [11]: 100%; pest or weed control at 1280 g/ha [12]: 100%
COC(=O)C(C)Oc1nn(-c2ccccc2)c(-c2ccc(F)nc2)c1Cl (stereo not drawn) [VII-023, Methyl 2-{[4-chloro-5-(6-fluoropyridin-3-yl)-1-phenyl-1H-pyrazol-3-yl]oxy}propanoate]	–	–	–	–	–	–	–	–	–	–	–	–	90	–	100	100	100	100	90	100	pest or weed control at 320 g/ha [7]: 100%; pest or weed control at 320 g/ha [8]: 100%; pest or weed control at 320 g/ha [9]: 100%; pest or weed control at 320 g/ha [10]: 100%; pest or weed control at 320 g/ha [11]: 100%; pest or weed control at 1280 g/ha [12]: 100%

Source: US12180187B2, “1-phenyl-5-azinylpyrazolyl-3-oxyalkyl acids and their use for controlling unwanted plant growth” (BAYER AKTIENGESELLSCHAFT, priority 2019, dated 2024)
